This note sets out measurements from publication PMC10323144, “Garbage in, garbage out: how reliable training data improved a virtual screening approach against SARS-CoV-2 MPro” (Frontiers in Pharmacology, 2023).

Square brackets hold non-standard residues; d marks the D form. Peptide text beside a SMILES is read from it. * marks the point of attachment. NMeF = CN[CH](Cc1ccccc1)C(=O)O; NMeA = CN[CH](C)C(=O)O; tBu = CC(C)(C)*

The assay deals with SARS-CoV-2 MPro (Severe acute respiratory syndrome coronavirus 2, UniProt P0DTD1). Briefly: MPro activity assay (de-quenching of Edans fluorescence on cleavage of a Dabcyl/Edans peptide). Type of assay: biochemical. Particulars: in-house acquired data, internal screening under standardized conditions (128 compounds).

Take `COc1ccc(Cn2sc3ccccc3c2=O)cc1` [COV19009]: the “Class (MPro activity class)” value is 1 (Compounds with IC50 < 10 µM or with a percentage of enzyme inhibition >50% at 10 µM were labelled as ACTIVE).
Turning to `O=c1c2ccccc2sn1-c1ccccc1` [COV19010], the “Class (MPro activity class)” value is on record as 1 (Compounds with IC50 < 10 µM or with a percentage of enzyme inhibition >50% at 10 µM were labelled as ACTIVE).
For the molecule `Cc1cccc(Cl)c1-n1sc2ccccc2c1=O` [COV19011], the “Class (MPro activity class)” value is listed as 1 (Compounds with IC50 < 10 µM or with a percentage of enzyme inhibition >50% at 10 µM were labelled as ACTIVE).
As for `O=c1c2ccccc2sn1-c1ccc(C(F)(F)F)cc1` [COV19012], the “Class (MPro activity class)” value was 1 (Compounds with IC50 < 10 µM or with a percentage of enzyme inhibition >50% at 10 µM were labelled as ACTIVE).
`O=c1c2ccccc2sn1-c1ccc2ccccc2c1` [COV19013]: the “Class (MPro activity class)” value is 1 (Compounds with IC50 < 10 µM or with a percentage of enzyme inhibition >50% at 10 µM were labelled as ACTIVE).
With `O=c1c2ccccc2sn1-c1ccc([N+](=O)[O-])cc1` [COV19014], the “Class (MPro activity class)” value is 1 (Compounds with IC50 < 10 µM or with a percentage of enzyme inhibition >50% at 10 µM were labelled as ACTIVE).
With `Cc1ccc(-n2sc3ccccc3c2=O)cc1` [COV19015], the “Class (MPro activity class)” value is 1 (Compounds with IC50 < 10 µM or with a percentage of enzyme inhibition >50% at 10 µM were labelled as ACTIVE).
For the molecule `O=c1c2ccccc2sn1-c1ccc(Cl)cc1` [COV19016], the “Class (MPro activity class)” value is given as 1 (Compounds with IC50 < 10 µM or with a percentage of enzyme inhibition >50% at 10 µM were labelled as ACTIVE).
Consider `Cc1cccc2c(=O)n(-c3ccccc3)sc12` [COV19017], for which the “Class (MPro activity class)” value was 0 (compounds with IC50 > 20 μM, percentage inhibition <80% at 20 µM or 50 μM, or percentage enzyme inhibition <50% at 10 µM were labelled as INACTIVE).
In the case of `Cc1ccc(-n2sc3cc(Cl)cc(C)c3c2=O)cc1` [COV19018] it was 1 (Compounds with IC50 < 10 µM or with a percentage of enzyme inhibition >50% at 10 µM were labelled as ACTIVE).
In the case of `CCOC(=O)c1ncc(-n2sc3ccccc3c2=O)s1` [COV19019] it was 1 (Compounds with IC50 < 10 µM or with a percentage of enzyme inhibition >50% at 10 µM were labelled as ACTIVE).
For the molecule `O=C1NCCCCC1n1sc2ccccc2c1=O` (stereo not shown) [COV19020], the “Class (MPro activity class)” value was 1 (Compounds with IC50 < 10 µM or with a percentage of enzyme inhibition >50% at 10 µM were labelled as ACTIVE).
For the molecule `O=c1c2ccccc2sn1-c1nc2cc(Sc3ccccc3)ccc2[nH]1` [COV19021], the “Class (MPro activity class)” value is 1 (Compounds with IC50 < 10 µM or with a percentage of enzyme inhibition >50% at 10 µM were labelled as ACTIVE).
With `O=C(Cn1ccnc1NC(=O)c1ccccc1I)NCc1ccccc1` [COV19022], the “Class (MPro activity class)” value is 0 (compounds with IC50 > 20 μM, percentage inhibition <80% at 20 µM or 50 μM, or percentage enzyme inhibition <50% at 10 µM were labelled as INACTIVE).
`O=C(Cn1ccnc1-n1sc2ccccc2c1=O)NCc1ccccc1` [COV19023]: the “Class (MPro activity class)” value is listed as 0 (compounds with IC50 > 20 μM, percentage inhibition <80% at 20 µM or 50 μM, or percentage enzyme inhibition <50% at 10 µM were labelled as INACTIVE).
Take `COc1ccc(CNC(=O)c2ccccc2I)cc1` [COV19024]: the “Class (MPro activity class)” value is recorded as 0 (compounds with IC50 > 20 μM, percentage inhibition <80% at 20 µM or 50 μM, or percentage enzyme inhibition <50% at 10 µM were labelled as INACTIVE).
For the molecule `Cc1ccc(NC(=O)c2ccccc2I)cc1` [COV19025], the “Class (MPro activity class)” value is listed as 0 (compounds with IC50 > 20 μM, percentage inhibition <80% at 20 µM or 50 μM, or percentage enzyme inhibition <50% at 10 µM were labelled as INACTIVE).
As to `O=C(Nc1ccccc1)c1ccccc1I` [COV19026], the “Class (MPro activity class)” value is listed as 0 (compounds with IC50 > 20 μM, percentage inhibition <80% at 20 µM or 50 μM, or percentage enzyme inhibition <50% at 10 µM were labelled as INACTIVE).
In the case of `O=C(Nc1ccc(Cl)cc1)c1ccccc1I` [COV19027], the “Class (MPro activity class)” value was 0 (compounds with IC50 > 20 μM, percentage inhibition <80% at 20 µM or 50 μM, or percentage enzyme inhibition <50% at 10 µM were labelled as INACTIVE).
On to `Cc1cccc(Cl)c1NC(=O)c1ccccc1I` [COV19028], for which the “Class (MPro activity class)” value is given as 0 (compounds with IC50 > 20 μM, percentage inhibition <80% at 20 µM or 50 μM, or percentage enzyme inhibition <50% at 10 µM were labelled as INACTIVE).
On to `O=C(Nc1nc2cc(Sc3ccccc3)ccc2[nH]1)c1ccccc1I` [COV19029], for which the “Class (MPro activity class)” value is reported as 0 (compounds with IC50 > 20 μM, percentage inhibition <80% at 20 µM or 50 μM, or percentage enzyme inhibition <50% at 10 µM were labelled as INACTIVE).
Take `O=C(Nc1ccc([N+](=O)[O-])cc1)c1ccccc1I` [COV19030]: the “Class (MPro activity class)” value is given as 0 (compounds with IC50 > 20 μM, percentage inhibition <80% at 20 µM or 50 μM, or percentage enzyme inhibition <50% at 10 µM were labelled as INACTIVE).
`COc1cccc(OC)c1NC(=O)c1ccccc1I` [COV19031]: the “Class (MPro activity class)” value is given as 0 (compounds with IC50 > 20 μM, percentage inhibition <80% at 20 µM or 50 μM, or percentage enzyme inhibition <50% at 10 µM were labelled as INACTIVE).
As to `O=C(NCc1ccc(C(F)(F)F)cc1)c1ccccc1I` [COV19032], the “Class (MPro activity class)” value is recorded as 0 (compounds with IC50 > 20 μM, percentage inhibition <80% at 20 µM or 50 μM, or percentage enzyme inhibition <50% at 10 µM were labelled as INACTIVE).
As for `O=C(Nc1cccc2ccccc12)c1ccccc1I` [COV19033], the “Class (MPro activity class)” value is on record as 0 (compounds with IC50 > 20 μM, percentage inhibition <80% at 20 µM or 50 μM, or percentage enzyme inhibition <50% at 10 µM were labelled as INACTIVE).
With `Cc1cccc(C(=O)Nc2ccccc2)c1I` [COV19034], the “Class (MPro activity class)” value is recorded as 0 (compounds with IC50 > 20 μM, percentage inhibition <80% at 20 µM or 50 μM, or percentage enzyme inhibition <50% at 10 µM were labelled as INACTIVE).
On to `NC(=O)c1ccccc1I` [COV19035], for which the “Class (MPro activity class)” value is 0 (compounds with IC50 > 20 μM, percentage inhibition <80% at 20 µM or 50 μM, or percentage enzyme inhibition <50% at 10 µM were labelled as INACTIVE).
`Cc1cccc(C(N)=O)c1I` [COV19036]: the “Class (MPro activity class)” value is on record as 0 (compounds with IC50 > 20 μM, percentage inhibition <80% at 20 µM or 50 μM, or percentage enzyme inhibition <50% at 10 µM were labelled as INACTIVE).
Turning to `O=C(Nc1ccc(C(F)(F)F)cc1)c1ccccc1I` [COV19037], the “Class (MPro activity class)” value is 0 (compounds with IC50 > 20 μM, percentage inhibition <80% at 20 µM or 50 μM, or percentage enzyme inhibition <50% at 10 µM were labelled as INACTIVE).
For `Cc1ccc(NC(=O)c2c(C)cc(Cl)cc2I)cc1` [COV19038], the “Class (MPro activity class)” value is 0 (compounds with IC50 > 20 μM, percentage inhibition <80% at 20 µM or 50 μM, or percentage enzyme inhibition <50% at 10 µM were labelled as INACTIVE).
Regarding `Cc1cc(Cl)cc(I)c1C(=O)NCc1ccccc1` [COV19039], the “Class (MPro activity class)” value is reported as 0 (compounds with IC50 > 20 μM, percentage inhibition <80% at 20 µM or 50 μM, or percentage enzyme inhibition <50% at 10 µM were labelled as INACTIVE).
As to `Cc1cccc(C(=O)NCc2ccccc2)c1I` [COV19040], the “Class (MPro activity class)” value was 0 (compounds with IC50 > 20 μM, percentage inhibition <80% at 20 µM or 50 μM, or percentage enzyme inhibition <50% at 10 µM were labelled as INACTIVE).
In the case of `CC1C(=O)NC(Cc2ccccc2)C(=O)N(C)C(Cc2ccccc2)C(=O)NCC(=O)N1C` (stereo not shown) [COV19080] (cyclo(G[NMeA]F[NMeF]); configuration not given here), the “Class (MPro activity class)” value is reported as 0 (compounds with IC50 > 20 μM, percentage inhibition <80% at 20 µM or 50 μM, or percentage enzyme inhibition <50% at 10 µM were labelled as INACTIVE).
`CC1C(=O)NC(Cc2ccc(OC(C)(C)C)cc2)C(=O)NCC(=O)N(C)C(Cc2ccccc2)C(=O)N1C` (stereo not shown) [COV19081] (cyclo(G[NMeF][NMeA]Y(tBu)); configuration not given here): the “Class (MPro activity class)” value is on record as 0 (compounds with IC50 > 20 μM, percentage inhibition <80% at 20 µM or 50 μM, or percentage enzyme inhibition <50% at 10 µM were labelled as INACTIVE).
In the case of `CC1NC(=O)C(Cc2ccccc2)N(C)C(=O)CNC(=O)C(Cc2ccccc2)N(C)C1=O` (stereo not shown) [COV19097] (cyclo(G[NMeF]A[NMeF]); configuration not given here) it was 0 (compounds with IC50 > 20 μM, percentage inhibition <80% at 20 µM or 50 μM, or percentage enzyme inhibition <50% at 10 µM were labelled as INACTIVE); in that of `CC(=NNC(N)=S)c1cc2ccccc2oc1=O` [COV19136], 0 (compounds with IC50 > 20 μM, percentage inhibition <80% at 20 µM or 50 μM, or percentage enzyme inhibition <50% at 10 µM were labelled as INACTIVE); in that of `CNC(=S)NN=C(C)c1cc2ccccc2oc1=O` [COV19137], 0 (compounds with IC50 > 20 μM, percentage inhibition <80% at 20 µM or 50 μM, or percentage enzyme inhibition <50% at 10 µM were labelled as INACTIVE).
Consider `CCNC(=S)NN=C(C)c1cc2ccccc2oc1=O` [COV19138], for which the “Class (MPro activity class)” value is given as 0 (compounds with IC50 > 20 μM, percentage inhibition <80% at 20 µM or 50 μM, or percentage enzyme inhibition <50% at 10 µM were labelled as INACTIVE).
In the case of `CC(=NNC(=S)Nc1ccccc1)c1cc2ccccc2oc1=O` [COV19139] it was 0 (compounds with IC50 > 20 μM, percentage inhibition <80% at 20 µM or 50 μM, or percentage enzyme inhibition <50% at 10 µM were labelled as INACTIVE); in that of `CC(=NNC(N)=S)c1c(O)c2ccccc2oc1=O` [COV19140], 0 (compounds with IC50 > 20 μM, percentage inhibition <80% at 20 µM or 50 μM, or percentage enzyme inhibition <50% at 10 µM were labelled as INACTIVE); in that of `CNC(=S)NN=C(C)c1c(O)c2ccccc2oc1=O` [COV19141], 0 (compounds with IC50 > 20 μM, percentage inhibition <80% at 20 µM or 50 μM, or percentage enzyme inhibition <50% at 10 µM were labelled as INACTIVE).
In the case of `CCNC(=S)NN=C(C)c1c(O)c2ccccc2oc1=O` [COV19142] it was 0 (compounds with IC50 > 20 μM, percentage inhibition <80% at 20 µM or 50 μM, or percentage enzyme inhibition <50% at 10 µM were labelled as INACTIVE); in that of `CC(=NNC(=S)Nc1ccccc1)c1c(O)c2ccccc2oc1=O` [COV19143], 0 (compounds with IC50 > 20 μM, percentage inhibition <80% at 20 µM or 50 μM, or percentage enzyme inhibition <50% at 10 µM were labelled as INACTIVE).
